Experimental data: PMC11459966, “Oral pharmacokinetics and efficacy of oral phospholipid remdesivir nucleoside prodrugs against SARS-CoV-2 in mice” (Antimicrobial Agents and Chemotherapy, 2024)
Where two headings read alike, the source gives them in different places.

Experiments:
[1] = tested on: SARS-CoV-2 isolate USA-WA1/2020; experiment: microbe, parasite or virus in culture; assay type: cell-based; conditions: for Relative activity vs RVn (RVN EC50/Test Compound EC50): Calu-3; for EC50 / EC90: Calu-3 cells, 44–48 hpi
[2] = tested on: Vero-TMPRSS2 cells; experiment: Cell viability assay (CellTiter-Glo), Vero-TMPRSS2; assay type: cell-based, African green monkey; conditions: 48 h incubation
Protocol: Cell viability assays (Table 1) were performed as previously described ([7]). Cells were cultured and seeded as per in vitro antiviral studies in opaque walled 96-well cell culture plates and incubated overnight for Huh7.5, A2T2-A549, and Vero-E6-TMPRSS2 cells and for 2 days for Calu-3 cells. Compounds or controls were added at the indicated concentrations in a total volume of 100 µL, and cells were incubated for 48 h. An equal volume of CellTiter-Glo reagent (Promega, Cat. #G7570) or CellTiter-Glo 2.0 reagent (Promega, Cat. #G9241) was added and mixed, and luminescence was recorded on a Veritas Microplate Luminometer (Turner BioSystems) or a Spark Multimode plate reader (Tecan) according to manufacturer instructions. Percent viability was normalized to DMSO controls, and CC50 values were derived from best fit curves calculated in Prism 10.

[3] = 5-day oral tolerability study with terminal pharmacokinetics in BALB/c mice; assay type: in vivo; conditions: 80 mg/kg or 100 mg/kg daily PO
Protocol: Fig 3 Oral RVn prodrugs maintain high serum levels after repeated dosing in mice and hamsters. Multiple-dose oral tolerability and pharmacokinetics in mice and Syrian hamsters: (A and B) 5-day oral tolerability study in BALB/c mice with pharmacokinetics obtained after the final dose. Male 20–22 g mice were given the indicated drugs at (A) 80 mg/kg or (B) 100 mg/kg PO daily in 0.1 M sodium carbonate/bicarbonate pH 9 for 5 days. Plasma was obtained after the last dose at 1, 3, 6, and 12 h (In Vivo Technologies, Moffatt Field, CA). (C) 7-day oral tolerability study in Syrian hamsters with pharmacokinetics obtained after the final dose. […] All plasma samples were analyzed to determine prodrug levels (Aliri Bio, Colorado Springs, CO).
After fortification, 50 µL of plasma was crashed with 400 µL of methanol containing 10 ng/mL of the internal standard (V2066). One hundred fifty microliters of the supernatant was removed and diluted with 150 µL of water in a clean 96 well injection plate.
Chromatography for the prodrugs was performed on a Raptor Biphenyl (2.1 × 50) column at a flow rate of 0.5 mL/min. A gradient method starting at 60% B (0.1% formic acid in 90:10 methanol:acetonitrile) for 30 s and then ramping to 95% B over 2.5 min. This composition was held for 1.0 min before being returned to starting conditions and re-equilibration to 40% A (10 mM ammonium formate with 0.2% formic acid in water).
Oral pharmacokinetic studies were carried out at In Vivo Technologies (Moffatt Field, CA) in male BALB/c mice, 22–23 g under IACUC protocol number IVT-11–010Y12 (LifeSource Animal Care and Use Committee). […] Blood was obtained by facial vein or terminal cardiac puncture at the indicated times and plasma was frozen for analysis. Similar procedures were followed for 5-day tolerability and terminal dose pharmacokinetic studies in mice at oral daily doses of 80 or 100 mg/kg.

[4] = tested on: SARS-CoV-2 isolate USA-WA1/2020; conditions: for Relative activity vs RVn (RVN EC50/Test Compound EC50) / SI (CC50/EC50): A2T2-A549; for EC50: read-out: EC50 μM ± SD; for EC50 / EC90: A2T2-A549 cells, 48 hpi; for EC90: read-out: EC90 μM ± SD
[5] = tested on: SARS-CoV-2 isolate USA-WA1/2020; conditions: for Relative activity vs RVn (RVN EC50/Test Compound EC50) / SI (CC50/EC50): Huh7.5; for EC50: read-out: EC50 μM ± SD; for EC50 / EC90: Huh7.5 cells, 48 hpi; for EC90: read-out: EC90 μM ± SD
[6] = tested on: SARS-CoV-2 isolate USA-WA1/2020; conditions: for Relative activity vs RVn (RVN EC50/Test Compound EC50) / SI (CC50/EC50): Vero-TMPRSS2; for EC50: read-out: EC50 μM ± SD; for EC50 / EC90: Vero-TMPRSS2 cells, 32 hpi; for EC90: read-out: EC90 μM ± SD
[7] = tested on: SARS-CoV-2 isolate USA-WA1/2020; parameters: method as in PMID 37040439; conditions: Calu-3, dotted lines of Fig. 2 and 3 ref 7; read-out: in vitro EC90 for SARS-CoV-2 infection in Calu-3 cells; cited from earlier work
[8] = tested on: Calu-3 cells; parameters: method as in PMID 37040439; conditions: Calu-3, CellTiter-Glo, previously published, identical conditions ref 7; cited from earlier work
[9] = tested on: Huh7.5 cells; parameters: method as in PMID 37040439; conditions: Huh7.5, CellTiter-Glo, previously published, identical conditions ref 7; cited from earlier work
[10] = tested on: A2T2-A549 cells; experiment: Cell viability assay (CellTiter-Glo), A2T2-A549; conditions: A2T2-A549, CellTiter-Glo, 48 h incubation
[11] = Single dose PO or IV plasma pharmacokinetics and tolerability in BALB/c mice; conditions: BALB/c mice; for tolerability of single escalating oral doses: 20, 60 or 180 mg/kg single oral dose; for F% (oral bioavailability): oral vs IV (7 mg/kg) prodrug exposure, printed on the 20 mg/kg oral lines

Structure (SMILES): CCCCCCCCC=CCCCCCCCCOCC(COP(=O)(O)OCC1OC(C#N)(c2ccc3c(N)ncnn23)C(O)C1O)OCc1ccc(OC)c(F)c1 (stereo not shown) [Compound V2053]
- Relative activity vs RVn (RVN EC50/Test Compound EC50) [1]: 9.0×
- EC50 [1]: 0.074 ± 0.014 µM
- EC90 [1]: 0.153 ± 0.047 µM
- CC50 [2]: > 100 µM
- tolerability of once-daily oral doses for 5 days [3]: no adverse clinical effects were noted
- Relative activity vs RVn (RVN EC50/Test Compound EC50) [4]: 7.3×
- SI (CC50/EC50) [4]: >243
- EC50 [4]: 0.41 ± 0.04 µM
- EC90 [4]: 0.811 ± 0.059 µM
- Relative activity vs RVn (RVN EC50/Test Compound EC50) [5]: 28.9×
- SI (CC50/EC50) [5]: >2,128
- EC50 [5]: 0.047 ± 0.015 µM
- EC90 [5]: 0.136 ± 0.058 µM
- Relative activity vs RVn (RVN EC50/Test Compound EC50) [6]: 8.0×
- SI (CC50/EC50) [6]: >746
- EC50 [6]: 0.134 ± 0.05 µM
- EC90 [6]: 0.367 ± 0.139 µM
- EC90 [7]: 154 nM
- CC50 [8]: 58.7 µM
- CC50 [9]: > 100 µM
- CC50 [10]: > 100 µM
- tolerability of single escalating oral doses [11]: well tolerated with no appreciable adverse effects
- AUC ([11]; IV, 7 mg/kg, plasma): 9.58 µM·h
- Cmax ([11]; IV, 7 mg/kg, plasma): 30.2 µM
- T1/2 ([11]; IV, 7 mg/kg, plasma): 0.29 h
- AUC ([11]; Oral, 20 mg/kg): 13.60 µM·h
- CL/F ([11]; Oral, 20 mg/kg): 1.68 L/kg/h
- Cmax ([11]; Oral, 20 mg/kg): 1.78 µM
- T1/2 ([11]; Oral, 20 mg/kg): 6.04 h
- Vd/F ([11]; Oral, 20 mg/kg): 14.60 L/kg
- AUC ([11]; Oral, 60 mg/kg): 53.10 µM·h
- CL/F ([11]; Oral, 60 mg/kg): 1.34 L/kg/h
- Cmax ([11]; Oral, 60 mg/kg): 7.66 µM
- T1/2 ([11]; Oral, 60 mg/kg): 3.44 h
- Vd/F ([11]; Oral, 60 mg/kg): 6.67 L/kg
- AUC ([11]; Oral, 180 mg/kg): 90.80 µM·h
- CL/F ([11]; Oral, 180 mg/kg): 1.81 L/kg/h
- Cmax ([11]; Oral, 180 mg/kg): 12.5 µM
- T1/2 ([11]; Oral, 180 mg/kg): 7.06 h
- Vd/F ([11]; Oral, 180 mg/kg): 18.50 L/kg
- F% (oral bioavailability) [11]: 51.0%

Structure (SMILES): CCCCCCCCCCCCCCCCCCOCC(COP(=O)(O)OC[C@H]1O[C@@](C#N)(c2ccc3c(N)ncnn23)[C@H](O)[C@@H]1O)OCc1ccc(C#N)cc1 (stereo partly shown) [Compound V2067]
- Relative activity vs RVn (RVN EC50/Test Compound EC50) [1]: 12.5×
- EC50 [1]: 0.053 ± 0.018 µM
- EC90 [1]: 0.172 ± 0.14 µM
- CC50 [2]: 57 µM
- tolerability of once-daily oral doses for 5 days [3]: no adverse clinical effects were noted
- Relative activity vs RVn (RVN EC50/Test Compound EC50) [4]: 14.1×
- SI (CC50/EC50) [4]: 386
- EC50 [4]: 0.213 ± 0.026 µM
- EC90 [4]: 0.441 ± 0.071 µM
- Relative activity vs RVn (RVN EC50/Test Compound EC50) [5]: 37.7×
- SI (CC50/EC50) [5]: 1,311
- EC50 [5]: 0.036 ± 0.014 µM
- EC90 [5]: 0.096 ± 0.037 µM
- Relative activity vs RVn (RVN EC50/Test Compound EC50) [6]: 23.4×
- SI (CC50/EC50) [6]: 1,239
- EC50 [6]: 0.046 ± 0.014 µM
- EC90 [6]: 0.107 ± 0.02 µM
- EC90 [7]: 82 nM
- CC50 [8]: 60.2 µM
- CC50 [9]: 47.2 µM
- CC50 [10]: 82.3 µM
- tolerability of single escalating oral doses [11]: well tolerated with no appreciable adverse effects
- AUC ([11]; IV, 7 mg/kg, plasma): 36.16 µM·h
- Cmax ([11]; IV, 7 mg/kg, plasma): 116 µM
- T1/2 ([11]; IV, 7 mg/kg, plasma): 0.23 h
- AUC ([11]; Oral, 20 mg/kg): 64.70 µM·h
- CL/F ([11]; Oral, 20 mg/kg): 0.373 L/kg/h
- Cmax ([11]; Oral, 20 mg/kg): 8.83 µM
- T1/2 ([11]; Oral, 20 mg/kg): 4.06 h
- Vd/F ([11]; Oral, 20 mg/kg): 2.18 L/kg
- AUC ([11]; Oral, 60 mg/kg): 154.00 µM·h
- CL/F ([11]; Oral, 60 mg/kg): 0.45 L/kg/h
- Cmax ([11]; Oral, 60 mg/kg): 24.9 µM
- T1/2 ([11]; Oral, 60 mg/kg): 6.83 h
- Vd/F ([11]; Oral, 60 mg/kg): 4.38 L/kg
- AUC ([11]; Oral, 180 mg/kg): 332.00 µM·h
- CL/F ([11]; Oral, 180 mg/kg): 0.49 L/kg/h
- Cmax ([11]; Oral, 180 mg/kg): 41 µM
- T1/2 ([11]; Oral, 180 mg/kg): 12.40 h
- Vd/F ([11]; Oral, 180 mg/kg): 8.74 L/kg
- F% (oral bioavailability) [11]: 57.0%
